{"source": "paper PMC6512958", "about": "(Hypertension (Dallas, Tex. : 1979), 2019)", "key": {"human MasR": {"tested_on": "human MasR", "test": "cAMP production in HEK293 cells overexpressing human MasR", "format": "cell-based", "conditions": "10^-7, 10^-6 and 10^-5 M, 10 min; RIA; vs no treatment; Figure 2B"}, "normal canines": {"tested_on": "normal canines", "format": "in vivo, male mongrel dogs", "conditions": "IV infusion 8.66 pmol/kg/min"}, "[1]": {"tested_on": "diabetic mice and rats overexpressing the mouse Ren2-gene", "conditions": "long-term treatment, cited from earlier work"}, "rodents": {"tested_on": "rodents", "conditions": "ANG1-7/MasR, rodents / diet-induced obesity; cited from earlier work"}, "[2]": {"conditions": "cited from earlier work"}, "human pGC-A": {"tested_on": "human pGC-A", "test": "cGMP production in HEK293 cells overexpressing human pGC-A", "format": "cell-based", "conditions": "10^-10, 10^-8 and 10^-6 M, 10 min; RIA; vs no treatment; Figure 2A"}, "humans with stable HF": {"tested_on": "humans with stable HF", "conditions": "chronic subcutaneous BNP, human HF; cited from earlier work"}, "HTN": {"tested_on": "HTN", "conditions": "cited from earlier work"}}, "data": [{"substance": "Angiotensin 1-7 [ANG1–7]", "values": [{"measurement": "cAMP production (MasR activation)", "setting": "human MasR", "result": "significantly increasing concentrations of cAMP production"}, {"measurement": "reduction in MAP compared with BNP and NPA7", "setting": "normal canines; Figure 4A", "result": "modest"}, {"measurement": "mean arterial pressure (MAP), during drug infusion", "setting": "normal canines; n=5 (ANG1-7), Figure 4A", "result": "did not reduce MAP"}, {"measurement": "cardiomyocyte hypertrophy, apoptosis and fibrosis", "setting": "[1]; diabetic mice and rats overexpressing the mouse Ren2-gene", "result": "prevented"}, {"measurement": "cardiac function in diabetic mice", "setting": "[1]", "result": "significantly improved"}, {"measurement": "obesity-induced HTN and brown adipocyte differentiation", "setting": "rodents", "result": "protection from obesity-induced HTN in rodents and induction of brown adipocyte differentiation"}, {"measurement": "half-life time", "setting": "[2]", "result": "extremely short"}, {"measurement": "in vivo degradation", "setting": "[2]", "result": "rapid in vivo degradation"}]}, {"substance": "B-type natriuretic peptide [BNP]", "values": [{"measurement": "cGMP production (pGC-A activation)", "setting": "human pGC-A", "result": "significantly increasing concentrations of cGMP production"}, {"measurement": "mean arterial pressure (MAP)", "setting": "normal canines; BNP n=5, NPA7 n=6, Figure 4A", "result": "reduced MAP significantly"}, {"measurement": "symptoms and myocardial structure and function", "setting": "humans with stable HF", "result": "improved symptoms and myocardial structure and function"}]}, {"substance": "sacubitril/valsartan", "values": [{"measurement": "efficacy in HTN", "setting": "HTN", "result": "demonstrated efficacy in HTN"}]}]}
